From patent US6306822A, “Phosphopeptides and methods of treating bone diseases” (Big Bear Bio, Inc., priority 1998, dated 2001)

Experiments:
[1] = system: ovariectomized rats; assay: Ovariectomized rat osteoporosis model, femur bone mineral content by DEXA; type: in vivo, Harlan-Sprague-Dawley rats; conditions: Day 45, femur, OVX rats; compared with sham (positive) and OVX saline (negative) controls; doses and routes per b114 table
Procedure: Ovariectomized rats were chosen for the efficacy study of O-phosphoserine containing polypeptides. Ovaries were surgically resected from young female Harlan-Sprague-Dawley rats. Sham-operated rats were also prepared to use as positive controls.
After 7 days acclimation, the ovariectomized (OVX) rats were randomly divided into different treatment groups (6 animals per each group). Six sham-operated rats were assigned to the positive control group. Each group was fed a normal rat diet throughout the test period but received different treatments as summarized below: […]
The test samples four groups 3, 4, 5, and 6 were dissolved in saline and administered at once. Total volume of the sample solution was 1 ml and 0.1 ml per animal for oral and parenteral administration, respectively. Oral preparations were administered once a day and injection (s.c.) was every three days.
The group receiving the highest amount of oral Pse (group 3) was used to compare the efficacy of monomeric Pse versus Pse contained in a polypeptide.
On Days 0, 45, and 90 of the treatment, the femurs of most of the participating animals were subject to DEXA (dual energy X-ray absorptiometry) measurement, a typical method by which to study the status of bone growth. The animals were anesthetized and fixed on the bed when receiving the DEXA scan. […]

[2] = system: bone formation and resorption; assay: In vitro or ex vivo bone formation and resorption assay systems; conditions: typical in vitro or ex vivo bone formation and resorption assay systems
Excerpt: The mechanism of action of these polypeptides is not completely understood. […] These peptides may increase to bone formation by attracting calcium which is solubilized in the biological fluids (serum, bone marrow, and so on, etc.). In addition, these peptides may have an effect on the formation or cross-linking of bone matrix proteins, by forming hydroxyapatite on or between such matrix proteins.

SMILES: N[C@@H](COP(=O)(O)O)C(=O)O [Pse, O-phosphoserine]
- bone mineral content (BMC) measured by DEXA [1]: close to that of the negative control
- biological effect on bone [2]: neither the O-phosphoserine-containingpolypeptides nor O-phosphoserine monomer had any biological effect
